Measured values reported in patent US6039931A, “Derivatized DTPA complexes, pharmaceutical agents containing these compounds, their use, and processes for their production” (Schering Aktiengesellschaft, priority 1989, dated 2000).

Experiments:
[1] = system: male hairless rat (Lew/Mol), Brown Pearce tumor; test: in vivo NMR imaging (spin echo, 2 tesla) after i.v. administration, rat with Brown Pearce tumor in the thigh; conditions: 0.06 mmol/kg i.v.
Source text: Spin echo scans were made with the NMR tomograph (CSI 2 T) at 2 tesla (TR time of 400 ms and TE time of 20 ms).

[2] = system: female rats of the strain Lew/Mol; test: in vivo MRI imaging (T1-weighted spin echo, 2 tesla) after i.v. administration, 3 compounds; design: species or system rat (Lew/Mol); conditions: 0.1 mmol Gd/kg i.v.
Source text: The test animals were female rats of the strain Lew/Mol weighing 160-180 g. Prior to imaging, the animals were anesthetized ("Rompun"+"Ketavet") and provided with a catheter in the caudal vein to administer the contrast medium. Imaging took place in an MRI experimental device by General Electric (field strength 2 tesla). First of all, the images (7, 9, 11) were made without contrast medium with a T1 -weighted spin echo sequence (TR=400 msec, TE=20 msec, axial section plane, layer thickness 3 mm). The liver appears in each case with the normal signal intensity; the stomach is […] in tendency than the liver. […] This is due to feed residues, the feed containing manganese in relatively high concentrations (at the time of the test, the animals had been fasting for 6 hours) . Animal 3 had been implanted with an osteogenic sarcoma three weeks previously; this sarcoma was of equal contrast in the blank image and could not be defined. The administration of contrast medium took place via the venous catheter with a dose of 0.1 mmol Gd/kg (concentration of the solutions 0.05 mmol Gd/ml in 0.9% NaCl) for all 3 compounds.

[3] = T1 relaxation (relaxivity) in water and in plasma; type: physicochemical
[4] = system: female rats of the strain Lew/Mol; conditions: at this point in time after administration; commercial contrast medium; cited from earlier work

COc1ccc(CC(CN(CCN(CC(=O)[O-])CC(=O)[O-])CC(=O)[O-])N(CC(=O)[O-])CC(=O)[O-])cc1.[Gd+3].[Na+].[Na+] (stereo not drawn) [Example 1(c) disodium salt, Gadolinium Complex of 3,6,9-Triaza-3,6,9-tris(carboxymethyl)-4-(4-methoxybenzyl)undecanedioic Acid]
enhancement in the urinary bladder ([1]; 1 minute after administration): the first enhancement is already apparent in the urinary bladder | increase in contrast in the stomach ([1]; 45 minutes after injection): A strong increase in contrast is visible in the stomach | visualization of the tumor, of the urinary bladder, and of the stomach ([1]; 60 minutes after injection): A good visualization of the tumor (at the level of the reference tube) of the urinary bladder, and of the stomach | contrasting of the renal pelvis ([1]; 60 minutes, further improved 65 minutes after injection in a different layer): Contrasting of the renal pelvis is also striking | contrast enhancement in an axial scan in the zone of the liver ([1]; 180 minutes after injection): the contrast enhancement is likewise clearly recognizable

CCOc1ccc(CC(CN(CCN(CC(=O)[O-])CC(=O)[O-])CC(=O)[O-])N(CC(=O)[O-])CC(=O)[O-])cc1.[Gd+3].[Na+].[Na+] (stereo not drawn) [Example 8(c), Disodium Salt of the Gadolinium Complex of 3,6,9-Triaza-3,6,9-tris(carboxymethyl)-4-(4-ethoxybenzyl)undecanedioic Acid]
enhancement of the stomach, ranking among the 3 compounds [2]: least | enhancement of the liver ([2]; after 90 minutes): A marked enhancement of the liver

CCCCOc1ccc(CC(CN(CCN(CC(=O)[O-])CC(=O)[O-])CC(=O)[O-])N(CC(=O)[O-])CC(=O)[O-])cc1.[Gd+3].[Na+].[Na+] (stereo not drawn) [Example 9(c), Disodium Salt of the Gadolinium Complex of 3,6,9-Triaza-3,6,9-tris(carboxymethyl)-4-(4-butoxybenzyl)undecanedioic Acid]
T1 relaxation ([3]; in plasma): 14.20 ± 0.98 mmol⁻¹ s⁻¹ | T1 relaxation ([3]; in water): 5.80 ± 0.26 mmol⁻¹ s⁻¹ | enhancement of the liver ([2]; after 60 minutes): A marked enhancement of the liver

O=C([O-])CN(CCN(CC(=O)[O-])CC(Cc1ccc(OCc2ccccc2)cc1)N(CC(=O)[O-])CC(=O)[O-])CC(=O)[O-].[Gd+3].[Na+].[Na+] (stereo not drawn) [Example 10(c), Disodium Salt of the Gadolinium Complex of 3,6,9-Triaza-3,6,9-tris(carboxymethyl)-4-(4-benzyloxybenzyl)undecanedioic Acid]
enhancement of the stomach, ranking among the 3 compounds [2]: most strongly | enhancement of the liver ([2]; after 60 minutes): A marked enhancement of the liver | absorption of the contrast medium by the tumor (implanted osteogenic sarcoma) ([2]; animal 3, 60 minutes): has not absorbed the contrast medium at all, or only to a lesser proportion | visibility of the tumor (implanted osteogenic sarcoma) ([2]; animal 3, 60 minutes): the tumor is now additionally clearly visible

CNC[C@H](O)[C@@H](O)[C@H](O)[C@H](O)CO.CNC[C@H](O)[C@@H](O)[C@H](O)[C@H](O)CO.O=C([O-])CN(CCN(CC(=O)[O-])CC(=O)O)CCN(CC(=O)[O-])CC(=O)O.[Gd+3] [Magnevist, dimeglumine salt of Gd DTPA [gadolinium(III)complex of diethylenetriaminepentaacetic acid]]
enhancement of the liver (uptake by the hepatocytes), comparison [4]: cannot be observed at this point in time after administration
